Numbered stars: 1 amine (or outer) side, 2 acyl side, 3 side chain; on linkers, the order of the positions; unused ones are H or OH. Bridge positions count the residues as written; N and C are the ends. Square brackets hold non-standard residues; d marks the D form. Ends that are not written are not given here. Peptide text beside a SMILES is read from it. dAbu(3S-yl) = C[C@@H]([C@@H](N[*:1])C(=O)[*:2])[*:3]; pGlu = O=C1CC[C@@H](C(=O)O)N1
Experiments:
Type in all cases: cell-based
GAL1R [1] = target: T1, GAL1R (Homo sapiens, UniProt P47211); test: cAMP Hunter eXpress GAL1R CHO-K1 GPCR assay (inhibition of forskolin-induced cAMP); set-up: expressed in transfected cells; conditions: Table 3; CHO-K1 cells expressing GAL1R; 20 µM forskolin; 10 µM to 5 nM; (average) ratio, (n) in cell = number of assays; NA = ratio above 1000
T1 sequence (P47211 1-349): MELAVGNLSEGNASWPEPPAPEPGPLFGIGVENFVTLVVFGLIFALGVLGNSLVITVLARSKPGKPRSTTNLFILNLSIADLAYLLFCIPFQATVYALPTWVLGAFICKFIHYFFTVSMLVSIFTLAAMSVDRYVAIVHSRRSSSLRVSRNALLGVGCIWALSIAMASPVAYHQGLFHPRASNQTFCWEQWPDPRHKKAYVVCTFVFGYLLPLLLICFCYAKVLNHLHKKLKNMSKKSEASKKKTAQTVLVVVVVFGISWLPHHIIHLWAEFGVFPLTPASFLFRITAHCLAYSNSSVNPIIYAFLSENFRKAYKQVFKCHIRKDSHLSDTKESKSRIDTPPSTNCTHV
Method: To evaluate the ability of lanthipeptides to […] via GAL1R signaling, we used the cAMP Hunter™ eXpress GAL1R CHO-K1 GPCR Assay from Eurofins-DiscoverX. The assay was performed according to the manufacturer’s instructions. Briefly, for one assay, CHO-K1 cells expressing GAL1R were diluted in AssayComplete™ Cell Plating 2 Reagent, and 100 µl was seeded into each well of a 96-well plate. The plate was incubated at 37 °C, 5% CO2 in a humidified incubator. After 24 h of incubation, the media was aspirated, and 45 µl cell assay buffer/antibody mixture was added to all wells. […] Fifteen µl of the serial dilutions was applied in duplicates to the cells. The concentration of forskolin in the assay was 20 µM. The agonists were incubated for 30 min at 37 °C. Next, 15 µL Antibody Solution and 60 μL cAMP Working Detection Solution were added, and the plate was incubated for 1 h in the dark at room temperature. Finally, 60 μL cAMP Solution A was added and, after 3 h of incubation in the dark at room temperature, the chemiluminescent signal was read with a Synergy HT Biotek reader.

GAL1R [2] = target: T1, GAL1R; test: Label-free dynamic mass redistribution assay, SY5Y-R1 cells; set-up: expressed in transfected cells; conditions: GAL1R-expressing SH-SY5Y cells; 1.6 nM to 5 µM
Method: SH-SY5Y cells stably expressing low levels of either human GAL1R (SY5Y-R1) or GAL2R (SY5Y-R2) and HEK293 cells expressing human GAL3R (HEK-R3) were seeded in EnSpire LFC-[…] well plates (Perkin Elmer) at a concentration of 12,000 cells per well and cultured overnight at 37 °C and 5% CO2. The medium was aspired, and the cells were washed four times with Hank’s balanced salt solution (HBSS) (+ calcium, + magnesium) supplemented with HEPES (20 mM), and the final volume was adjusted to 30 µl per well. The plate was allowed to equilibrate to assay temperature for 1 h in the EnSpire multimode reader (Perkin Elmer). Galanin-(1–30) (GL Biochem) was dissolved and diluted in water. […] A baseline read was first generated by taking 4 measurements before ligands were added. The plate was measured between 30 and 70 repeats, and each treatment was performed in triplicate. […] EC50 values were calculated using Prism 8.2.0 (GraphPad Software Inc.). The values are provided as means of all independent experiments.

GAL1R [3] = target: T1, GAL1R; test: PathHunter eXpress β-arrestin recruitment assay, GAL1R; set-up: expressed in transfected cells; conditions: Table 3; CHO-K1 cells co-expressing GAL1R and β-arrestin 2; 10 µM to 5 nM; (average) ratio, (n) in cell = number of assays; NA = ratio above 1000
Method: (§1) To evaluate the ability of lanthipeptides to recruit ß-arrestins via GAL1R or via GAL2R, we used the PathHunter® eXpress GAL1R, CHO-K1, β-arrestin GPCR Assay and the PathHunter® eXpress GAL2R, CHO-K1, β-arrestin, GPCR Assay from Eurofins-DiscoverX. The assays were performed according to the manufacturer’s instructions. Briefly, for one assay, CHO-K1 cells co-expressing GAL1R or GAL2R and β-arrestin (isoform 2) were diluted in AssayComplete™ Cell Plating Reagent, and 100 µl was seeded into each well of a 96-well plate. The plate was incubated at 37 °C, 5% CO2 in a humidified incubator. A serial 3 × dilution of the lanthipeptides in water was made (10 µM to 5 nM). After 48 h of incubation, 10 µl of the serial dilutions was applied to the cells in duplicate. The agonists were incubated for 90 min at 37 °C. Next, 55 µL of Working Detection Solution was added, and after 1 h of incubation at room temperature in the dark, the chemiluminescent signal was read with a Synergy HT Biotek reader.

GAL2R [4] = target: T2, GAL2R (Homo sapiens, UniProt O43603); test: Fluo-4 Direct calcium assay (Ca efflux) in HEK293 cells overexpressing GAL2R; conditions: Table 3; HEK293 cells stably overexpressing GAL2R; Fluo-4, from 10 µM; (average) ratio, (n) in cell = number of assays; NA = ratio above 1000
T2 sequence (O43603 1-387): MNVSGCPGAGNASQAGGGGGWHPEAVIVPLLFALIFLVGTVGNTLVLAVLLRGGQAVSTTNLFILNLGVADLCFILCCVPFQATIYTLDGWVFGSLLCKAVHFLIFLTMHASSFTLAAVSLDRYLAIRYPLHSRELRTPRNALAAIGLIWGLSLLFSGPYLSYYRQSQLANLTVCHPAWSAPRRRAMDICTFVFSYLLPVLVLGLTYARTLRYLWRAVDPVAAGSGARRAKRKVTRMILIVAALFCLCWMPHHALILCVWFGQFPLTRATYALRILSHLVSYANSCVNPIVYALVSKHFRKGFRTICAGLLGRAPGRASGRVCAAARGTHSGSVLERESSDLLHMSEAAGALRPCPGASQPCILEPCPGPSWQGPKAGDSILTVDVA
Method: Calcium efflux was measured by using a Fluo-4 Direct Calcium Assay purchased from Thermo Fisher Scientific. HEK293 cells with stable overexpression of GAL2R (HEKR2) (kindly provided by Harald Dargatz, Molecular, Cellular and Pharmacobiology Section, Institute of Pharmaceutical Biology, University of Bonn, 53,115 Bonn, Germany) were used for analysis of the lanthipeptides. HEKR2 cells were seeded in a 96-well plate and grown overnight in DMEM supplemented with 10% FBS, 1% penicillin–streptomycin, 100 µg/ml Normocin, and 500 µg/ml G418 at 37 °C, 5% CO2 in a humidified incubator.
The next day, when the cells were nearly confluent, an equal amount of 2 × Fluo-4 Direct™ calcium reagent loading solution, containing 5 mM probenecid, was added to the wells, and the plate was incubated for 1 h at 37 °C. A serial 3 × dilution of the agonist compound in water was made, and 10 µl of the serial dilutions was applied to the cells in duplicate. The starting concentration of agonist in the assay was 10 µM. After 1–2 h of incubation at room temperature, the fluorescence was measured with excitation at 485/20 nm and emission at 528/20 nm with a Synergy HT Biotek reader.

GAL2R [5] = target: T2, GAL2R; test: PathHunter eXpress β-arrestin recruitment assay, GAL2R; set-up: expressed in transfected cells; conditions: Table 3; CHO-K1 cells co-expressing GAL2R and β-arrestin 2; 10 µM to 5 nM; (average) ratio, (n) in cell = number of assays; NA = ratio above 1000
Method: as §1

| Stimulation of GAL1R, DMR in SY5YR1 cells (GAL1R [2]) | EC50 ratios to Gal-(1-15), GAL1R ß-Arrestin (GAL1R [3]) | EC50 ratios to Gal-(1-15), GAL2R Ca-efflux (GAL2R [4]) | EC50 ratios to Gal-(1-15), GAL2R ß-Arrestin (GAL2R [5]) | Molecule | EC50 ratios to Gal-(1-15), GAL1R cAMP (GAL1R [1]) |
| --- | --- | --- | --- | --- | --- |
| – | 18.0 (1) | 4.7 (1) | 6.2 (1) | GWNLNAAGYLLGPTAVC (also: sidechain bridge or staple (positions not given here)) [Variant M85, methyllanthionine-containing galanin variant produced in L. lactis] | 11.6 (1) |
| – | 3 (1) | 1.3 (1) | 1.5 (1) | [pGlu]WNLNAAGYLLGATAVC (also: sidechain bridge or staple (positions not given here)) [Variant M91, pyroglutamate- and methyllanthionine-containing galanin variant] | NA (1) (NA is not active; ratios above 1000 were considered to be not active) |
| – | 9.6 (1) | 1.0 (1) | 0.5 (1) | [pGlu]WNLNAAGYLLGATAVGCHR (also: sidechain bridge or staple (positions not given here)) [Variant M76b, pyroglutamate- and methyllanthionine-containing galanin variant] | 12.2 (1) |
| – | 123 (1) | 7.3 (1) | 78 (1) | [pGlu]WNLNAAGYLLGPHTVGCHR (also: sidechain bridge or staple (positions not given here)) [Variant M83, pyroglutamate- and methyllanthionine-containing galanin variant] | NA (1) (NA is not active; ratios above 1000 were considered to be not active) |
| – | 260 (1) | 1.9 (2) | 4.8 (1) | [pGlu]WNLNAAGYLLGPTAVC (also: sidechain bridge or staple (positions not given here)) [Variant M87, pyroglutamate- and methyllanthionine-containing galanin variant] | NA (1) (NA is not active; ratios above 1000 were considered to be not active) |

| Molecule | Stimulation of GAL1R, DMR in SY5YR1 cells (GAL1R [2]) | EC50 ratios to Gal-(1-15), GAL1R ß-Arrestin (GAL1R [3]) | EC50 ratios to Gal-(1-15), GAL2R Ca-efflux (GAL2R [4]) | EC50 ratios to Gal-(1-15), GAL2R ß-Arrestin (GAL2R [5]) | EC50 ratios to Gal-(1-15), GAL1R cAMP (GAL1R [1]) |
| --- | --- | --- | --- | --- | --- |
| CC(C)C[C@H](NC(=O)[C@H](CC(C)C)NC(=O)[C@H](Cc1ccc(O)cc1)NC(=O)CNC(=O)[C@H](C)NC(=O)[C@H](C)NC(=O)[C@H](CC(N)=O)NC(=O)[C@H](CC(C)C)NC(=O)[C@H](CC(N)=O)NC(=O)[C@H](Cc1c[nH]c2ccccc12)NC(=O)[C@@H]1CCC(=O)N1)C(=O)N[C@@H](C)C(=O)N[C@H]1C(=O)N[C@@H](Cc2c[nH]cn2)C(=O)N[C@@H](C)C(=O)N[C@H](C(=O)NCC(=O)N[C@@H](CC(N)=O)C(=O)N[C@@H](Cc2c[nH]cn2)C(=O)N[C@@H](CCCNC(=N)N)C(=O)O)CS[C@H]1C [Variant M50b] ([pGlu]WNLNAAGYLLA[dAbu(3S-yl)]HACGNHR-OH; thioether 13-16; C-terminus assumed) | stimulate GAL2R only, not GAL1R | NA (1) (NA is not active; ratios above 1000 were considered to be not active) | 2.8 (3) | 4.7 (3) | NA (2) (NA is not active; ratios above 1000 were considered to be not active) |
| [pGlu]WNLNAAGYLLGATAVCNH (also: sidechain bridge or staple (positions not given here)) [Variant M54tr, pyroglutamate- and methyllanthionine-containing galanin variant] | – | NA (1) (NA is not active; ratios above 1000 were considered to be not active) | 1.2 (2) | 1 (1) | 16 (1) |

Reference: PMC8804135 (Neurotherapeutics, 2021)
